Values joined by “and” are separate entries in the source; they are usually repeats but may differ in a detail not shown here. Equal values may be shown once. Numbered stars: 1 amine (or outer) side, 2 acyl side, 3 side chain; on linkers, the order of the positions; unused ones are H or OH. Square brackets hold non-standard residues; d marks the D form. Side chains are listed from the residue outwards. Peptide text beside a SMILES is read from it. * marks the point of attachment. C18 diacid = O=C(O)CCCCCCCCCCCCCCCCC(=O)*; γGlu = O=C(O)[C@H](CCC(=O)[*:2])N[*:1]; Aib = CC(C)(N)C(=O)O
Tests used:
Assay type in all cases: in vivo
healthy human subjects [1] = assay: Single ascending dose Phase 1a trial, adverse events; settings: 6 subjects
Protocol: A single ascending dose Phase 1a trial was conducted for Cpd. 18 investigating the safety of single subcutaneous injections of doses ranging from 0.02 mg to 7.5 mg in healthy human subjects.
The phase 1a study was a First in Human, Randomized, Double-blind, Placebo-controlled, Single Ascending Dose Trial assessing Safety, Tolerability, Pharmacokinetics and Pharmacodynamics of a Single Subcutaneous Dose of Cpd. 18 in Healthy human Subjects.
Eight cohorts (dose levels: 0.02, 0.07, 0.2, 0.6, 1.5, 3.0, 6.0 and 7.5 mg) were given in this first in human trial. Eight subjects were allocated to the following ascending dose levels: 0.02, 0.07, 0.2, 0.6, 1.5, 3.0, 6.0 and 7.5 mg.
Adverse events (AE) were captured by asking open ended and nonleading questions according to the following wording in the protocol:
(§1) • All events meeting the definition of an AE must be collected and reported from the first trial-related activity after the subject has signed the informed consent and until the end of the post-treatment follow-up period. At each contact with the site (Visit or telephone) the subject must be asked about AEs. All AEs, either observed by the Investigator or reported by the subject, must be recorded by the Investigator and evaluated. • The Investigator should record the diagnosis, if possible. If no diagnosis can be made the Investigator should record each sign and symptom as individual AEs. • All AEs must be recorded by the Investigator. One single Adverse Event Form must be used per AE from start to resolution. For Serious Adverse Events (SAE), the Serious Adverse Event Form must also be completed.”

healthy human subjects [2] = assay: Multiple ascending dose Phase 1b trial, adverse events; settings: 7 subjects
Protocol: A multiple ascending dose Phase 1b trial was conducted for Cpd. 18 investigating the safety of multiple subcutaneous injections of various ascending doses in healthy human subjects. The trial was a Randomized, Double-blind, Placebo-controlled, Multi Ascending Dose Trial assessing Safety, Tolerability, Pharmacokinetics and Pharmacodynamics of Multiple Subcutaneous Dose of Cpd. 18 in Healthy human Subjects.
Four cohorts were dosed with four once weekly subcutaneous administrations. In each cohort, consisting of 10 subjects each, subjects were randomized to either placebo (n=3) or to the following active multiple ascending dose levels (n=7): 4 weekly dose injections of 1.0 mg; 4 weekly dose injections of 2.25 mg; 4 weekly dose injections of 3.5 mg and 1 weekly dose injections of 3.5 mg followed by 3 weekly dose injections of 6.0 mg.
Adverse events (AE) were captured by asking open ended and non-leading questions according to the following wording in the protocol:
as §1
The safety data (incidence/number of subjects) for subjects dosed 4×1.0 mg to 1×3.5 mg plus 3×6.0 mg as well as placebo is shown in Table 10 below.

healthy human subjects [3] = assay: Mixed meal test (breakfast), Phase 1b trial
Protocol: (§2) Reduction in appetite is reflected in the reduction in food intake measured by mixed meal test for breakfast (Table 11) and by measuring caloric intake at standard meals for lunch and dinner (Table 12).
The Mixed Meal Test (MMT) was performed at baseline, at 24 hours, after the first dosing (Day 2) and after the fourth dosing (Day 23). The meal consisted of a fixed nutrient content and the exact initial amount of nutrients were weighed by kitchen staff on a lab scale using the method of weighed intake. Consumption was supervised and leftovers were weighed and recorded as percentage of meal. Adjustment of leftovers on Day 2 will be performed for Day 23 and differences in weight will be calculated in carbohydrates.

healthy human subjects [4] = assay: Standard meal test (lunch and dinner), Phase 1b trial
Source text: as §2
Pre-defined lunch and dinner meals were served at baseline (on Day -1) and after 4th dose (Day 23). Consumption was supervised and leftovers were weighed.

[5] = 1 × 3.5 mg plus 3 × 6.0 mg weekly s.c.

Compound: CC[C@H](C)[C@H](NC(=O)[C@H](Cc1ccccc1)NC(=O)[C@H](CC(=O)O)NC(=O)[C@H](CCCNC(=N)N)NC(=O)[C@H](C)NC(=O)[C@H](C)NC(=O)[C@H](CCC(N)=O)NC(=O)[C@H](CCCCNC(=O)CC[C@H](NC(=O)CCCCCCCCCCCCCCCCC(=O)O)C(=O)O)NC(=O)[C@H](CC(=O)O)NC(=O)[C@H](CC(C)C)NC(=O)[C@@H](NC(=O)[C@@H](NC(=O)[C@H](C)NC(=O)[C@H](CC(C)C)NC(=O)[C@H](CCC(=O)O)NC(=O)[C@H](CO)NC(=O)[C@@H](NC(=O)[C@H](Cc1ccccc1)NC(=O)[C@H](CO)NC(=O)CNC(=O)[C@H](CCC(=O)O)NC(=O)C(C)(C)NC(=O)[C@@H](N)Cc1c[nH]cn1)[C@@H](C)O)[C@@H](C)O)[C@@H](C)CC)C(=O)N[C@@H](C)C(=O)N[C@@H](Cc1c[nH]c2ccccc12)C(=O)N[C@@H](CC(C)C)C(=O)N[C@H](C(=O)N[C@@H](CCC(N)=O)C(=O)N[C@@H](Cc1c[nH]cn1)C(=O)N[C@@H](CCCCN)C(=O)N[C@H](C(=O)N[C@H](C(=O)N[C@@H](CC(=O)O)C(=O)O)[C@@H](C)O)[C@@H](C)CC)[C@@H](C)CC [Compound 18] (H-H[Aib]EGSFTSELATILDK([γGlu-C18 diacid])QAARDFIAWLIQHKITD-OH)
- Subjects experiencing decreased appetite (healthy human subjects [1]; single s.c. dose 0.02 mg): 0
- Subjects experiencing nausea (healthy human subjects [1]; single s.c. dose 0.02 mg): 2
- Subjects experiencing vomiting (healthy human subjects [1]; single s.c. dose 0.02 mg): 0
- Subjects experiencing decreased appetite (healthy human subjects [1]; single s.c. dose 0.07 mg): 1
- Subjects experiencing nausea (healthy human subjects [1]; single s.c. dose 0.07 mg): 0
- Subjects experiencing vomiting (healthy human subjects [1]; single s.c. dose 0.07 mg): 0
- Subjects experiencing decreased appetite (healthy human subjects [1]; single s.c. dose 0.2 mg): 0
- Subjects experiencing nausea (healthy human subjects [1]; single s.c. dose 0.2 mg): 1
- Subjects experiencing vomiting (healthy human subjects [1]; single s.c. dose 0.2 mg): 0
- Subjects experiencing decreased appetite (healthy human subjects [1]; single s.c. dose 0.6 mg): 0
- Subjects experiencing nausea (healthy human subjects [1]; single s.c. dose 0.6 mg): 0
- Subjects experiencing vomiting (healthy human subjects [1]; single s.c. dose 0.6 mg): 0
- Subjects experiencing decreased appetite (healthy human subjects [1]; single s.c. dose 1.5 mg): 3/6 and 3
- Subjects experiencing nausea (healthy human subjects [1]; single s.c. dose 1.5 mg): 0
- Subjects experiencing vomiting (healthy human subjects [1]; single s.c. dose 1.5 mg): 0
- Subjects experiencing decreased appetite (healthy human subjects [1]; single s.c. dose 3.0 mg): 2
- Subjects experiencing nausea (healthy human subjects [1]; single s.c. dose 3.0 mg): 3
- Subjects experiencing vomiting (healthy human subjects [1]; single s.c. dose 3.0 mg): 2
- Subjects experiencing decreased appetite (healthy human subjects [1]; single s.c. dose 6.0 mg): 3
- Subjects experiencing nausea (healthy human subjects [1]; single s.c. dose 6.0 mg): 4
- Subjects experiencing vomiting (healthy human subjects [1]; single s.c. dose 6.0 mg): 5
- Subjects experiencing nausea (healthy human subjects [1]; single s.c. dose 7.5 mg): 2
- Subjects experiencing vomiting (healthy human subjects [1]; single s.c. dose 7.5 mg): 2
- Subjects experiencing decreased appetite (healthy human subjects [2]; [5]): 6/7 and 6
- Subjects experiencing nausea (healthy human subjects [2]; [5]): 4
- Subjects experiencing vomiting (healthy human subjects [2]; [5]): 3
- Subjects experiencing decreased appetite (healthy human subjects [2]; 4 weekly s.c. doses of 1.0 mg): 0
- Subjects experiencing nausea (healthy human subjects [2]; 4 weekly s.c. doses of 1.0 mg): 1
- Subjects experiencing vomiting (healthy human subjects [2]; 4 weekly s.c. doses of 1.0 mg): 0
- Subjects experiencing decreased appetite (healthy human subjects [2]; 4 weekly s.c. doses of 2.25 mg): 3/7 and 3
- Subjects experiencing nausea (healthy human subjects [2]; 4 weekly s.c. doses of 2.25 mg): 1
- Subjects experiencing vomiting (healthy human subjects [2]; 4 weekly s.c. doses of 2.25 mg): 0
- Subjects experiencing decreased appetite (healthy human subjects [2]; 4 weekly s.c. doses of 3.5 mg): 2/7 and 2
- Subjects experiencing nausea (healthy human subjects [2]; 4 weekly s.c. doses of 3.5 mg): 0
- Subjects experiencing vomiting (healthy human subjects [2]; 4 weekly s.c. doses of 3.5 mg): 0
- Mean food consumption (healthy human subjects [3]; After 1st dose (Day 2), cohort 1.0 mg): 99.0%
- Mean food consumption (healthy human subjects [3]; After 1st dose (Day 2), cohort 2.25 mg): 95.4%
- Mean food consumption (healthy human subjects [3]; After 1st dose (Day 2), cohort 3.5 mg): 99.2% and 96.2%
- Mean food consumption (healthy human subjects [3]; After 1st dose (Day 2), cohort 3.5/6.0 mg): 87.5%
- Mean food consumption (healthy human subjects [3]; After 4th dose (Day 23), cohort 1.0 mg weekly): 98.6%
- Mean food consumption (healthy human subjects [3]; After 4th dose (Day 23), cohort 2.25 mg weekly): 95.8%
- Mean food consumption (healthy human subjects [3]; After 4th dose (Day 23), cohort 3.5 mg weekly): 93.2%
- Mean food consumption (healthy human subjects [3]; After 4th dose (Day 23), cohort 3.5/6.0 mg weekly): 62.5%
- Mean food consumption (healthy human subjects [3]; Baseline, cohort 1.0 mg): 99.2%
- Mean food consumption (healthy human subjects [3]; Baseline, cohort 2.25 mg): 100%
- Mean food consumption (healthy human subjects [3]; Baseline, cohort 3.5 mg): 100%
- Mean food consumption (healthy human subjects [3]; Baseline, cohort 3.5/6.0 mg): 95.8%
- Mean food consumption (healthy human subjects [4]; Dinner, After 4th dose (Day 23), cohort 1.0 mg weekly): 682 kcal
- Mean food consumption (healthy human subjects [4]; Dinner, After 4th dose (Day 23), cohort 2.25 mg weekly): 585 kcal
- Mean food consumption (healthy human subjects [4]; Dinner, After 4th dose (Day 23), cohort 3.5 mg weekly): 594 kcal
- Mean food consumption (healthy human subjects [4]; Dinner, After 4th dose (Day 23), cohort 3.5/6.0 mg weekly): 423 kcal
- Mean food consumption (healthy human subjects [4]; Dinner, Baseline (Day -1), cohort 1.0 mg): 694 kcal
- Mean food consumption (healthy human subjects [4]; Dinner, Baseline (Day -1), cohort 2.25 mg): 679 kcal
- Mean food consumption (healthy human subjects [4]; Dinner, Baseline (Day -1), cohort 3.5 mg): 695 kcal
- Mean food consumption (healthy human subjects [4]; Dinner, Baseline (Day -1), cohort 3.5/6.0 mg): 694 kcal
- Mean food consumption (healthy human subjects [4]; Lunch, After 4th dose (Day 23), cohort 1.0 mg weekly): 705 kcal
- Mean food consumption (healthy human subjects [4]; Lunch, After 4th dose (Day 23), cohort 2.25 mg weekly): 649 kcal
- Mean food consumption (healthy human subjects [4]; Lunch, After 4th dose (Day 23), cohort 3.5 mg weekly): 647 kcal
- Mean food consumption (healthy human subjects [4]; Lunch, After 4th dose (Day 23), cohort 3.5/6.0 mg weekly): 403 kcal
- Mean food consumption (healthy human subjects [4]; Lunch, Baseline (Day -1), cohort 1.0 mg): 701 kcal
- Mean food consumption (healthy human subjects [4]; Lunch, Baseline (Day -1), cohort 2.25 mg): 638 kcal
- Mean food consumption (healthy human subjects [4]; Lunch, Baseline (Day -1), cohort 3.5 mg): 706 kcal
- Mean food consumption (healthy human subjects [4]; Lunch, Baseline (Day -1), cohort 3.5/6.0 mg): 671 kcal
